{"source": "paper PMC9225265", "about": "“Functional Analysis of the Plasma Membrane H^+-ATPases of Ustilago maydis” (Journal of Fungi, 2022)", "test_system": "T1, plasma membrane H+-ATPases of wild-type FB2 (Pma1 and Pma2)", "T1 construct": "native enzymes in isolated plasma membrane fraction of wild-type sporidia; both pumps present; vanadate-sensitive ATPase activity", "assay": "Pi release (Fiske-Subbarow), vanadate-sensitive ATPase activity of plasma membrane fraction, Michaelis-Menten fit", "type": "biochemical, Mycosarcoma maydis", "details": "MES pH 6.5, 5 mM MgCl2, 30 °C, ATP regenerating system (phosphoenolpyruvate / pyruvate kinase), NaN3, KNO3, Pma1 and Pma2 together, rounded value for all strains, exact value in figure", "data": [{"smiles": "Nc1ncnc2c1ncn2[C@@H]1O[C@H](COP(=O)(O)OP(=O)(O)OP(=O)(O)O)[C@@H](O)[C@H]1O", "note": "[Mg-ATP]", "values": [{"measurement": "Km", "value": "~2000", "unit": "µM"}]}]}
